The values below come from patent US11981658B2, “Substituted aminopyridine compounds as EGFR inhibitors” (YUHAN CORPORATION, priority 2021, dated 2024).

Counter-ions that a name gives are not always drawn. Like-named read-outs stand apart in the source and are kept apart here.

The target in one assay is EGFR Del19/C797S (Homo sapiens, UniProt P00533, C797S/DEL746-750). The experiment in a line: Biochemical EGFR kinase inhibition assay (Lance Ultra TR-FRET), double mutant del19/C797S. The method, boiled down: (§1)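 Kinase activity is measured by TR-FRET phosphopeptide detection. Compounds span 0.003 μM to 10 μM; the 1 h reaction at room temperature is quenched with EDTA, then labelled antibody (2 nM) is incubated 60 min before reading.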

Another assay concerns the target EGFR wildtype (WT) (Homo sapiens, UniProt P00533). The experiment in a line: Biochemical EGFR kinase inhibition assay (Lance Ultra TR-FRET), wildtype. The method, boiled down:
as §1
In general terms: In TR-FRET formats the signal depends on donor and acceptor labels being close together.

The target in a further assay is EGFR L858R/C797S (Homo sapiens, UniProt P00533, C797S/L858R). The experiment in a line: Biochemical EGFR kinase inhibition assay (Lance Ultra TR-FRET), double mutant L858R/C797S. The essentials: as §1
In another assay the target is EGFR L858R/T790M/C797S (Homo sapiens, UniProt P00533, C797S/L858R/T790M). Description: Biochemical EGFR kinase inhibition assay (Lance Ultra TR-FRET), triple mutant L858R/T790M/C797S. The essentials: as §1
Another assay deals with EGFR Del19/T790M/C797S (Homo sapiens, UniProt P00533, C797S/DEL746-750/T790M). Description: Biochemical EGFR kinase inhibition assay (Lance Ultra TR-FRET), triple mutant del19/T790M/C797S. The method, boiled down: as §1
[1] abbreviates: IC50 Del19/C797S (nM), 100 μM ATP.
[2] abbreviates: IC50 L858R/C797S (nM), 100 μM ATP.
Setting [3] is: IC50 L858R/T790M/C797S (nM), 100 μM ATP.
The mark [4] stands for this setting: IC50 Del19/T790M/C797S (nM), 100 μM ATP.
Setting [5] is: Km ATP, read-out: IC50 Del19/C797S (nM), Km ATP.
Where [6] appears, read: Km ATP, read-out: IC50 WT (nM), Km ATP.
The mark [7] stands for this setting: Km ATP, read-out: IC50 L858R/C797S (nM), Km ATP.
Where [8] appears, read: Km ATP, read-out: IC50 L858R/T790M/C797S (nM), Km ATP.
Setting [9] is: Km ATP, read-out: IC50 Del19/T790M/C797S (nM), Km ATP.
Setting [10] is: ATP at Km, read-out: IC50 Del19/C797S (nM), Km ATP.
Where [11] appears, read: ATP at Km, read-out: IC50 WT (nM), Km ATP.
Where [12] appears, read: ATP at Km, read-out: IC50 L858R/C797S (nM), Km ATP.
Where [13] appears, read: ATP at Km, read-out: IC50 L858R/T790M/C797S (nM), Km ATP.
Where [14] appears, read: ATP at Km, read-out: IC50 Del19/T790M/C797S (nM), Km ATP.

Sequence of EGFR Del19/C797S (P00533 with tags, fused parts or gaps DEL746-750/C797S): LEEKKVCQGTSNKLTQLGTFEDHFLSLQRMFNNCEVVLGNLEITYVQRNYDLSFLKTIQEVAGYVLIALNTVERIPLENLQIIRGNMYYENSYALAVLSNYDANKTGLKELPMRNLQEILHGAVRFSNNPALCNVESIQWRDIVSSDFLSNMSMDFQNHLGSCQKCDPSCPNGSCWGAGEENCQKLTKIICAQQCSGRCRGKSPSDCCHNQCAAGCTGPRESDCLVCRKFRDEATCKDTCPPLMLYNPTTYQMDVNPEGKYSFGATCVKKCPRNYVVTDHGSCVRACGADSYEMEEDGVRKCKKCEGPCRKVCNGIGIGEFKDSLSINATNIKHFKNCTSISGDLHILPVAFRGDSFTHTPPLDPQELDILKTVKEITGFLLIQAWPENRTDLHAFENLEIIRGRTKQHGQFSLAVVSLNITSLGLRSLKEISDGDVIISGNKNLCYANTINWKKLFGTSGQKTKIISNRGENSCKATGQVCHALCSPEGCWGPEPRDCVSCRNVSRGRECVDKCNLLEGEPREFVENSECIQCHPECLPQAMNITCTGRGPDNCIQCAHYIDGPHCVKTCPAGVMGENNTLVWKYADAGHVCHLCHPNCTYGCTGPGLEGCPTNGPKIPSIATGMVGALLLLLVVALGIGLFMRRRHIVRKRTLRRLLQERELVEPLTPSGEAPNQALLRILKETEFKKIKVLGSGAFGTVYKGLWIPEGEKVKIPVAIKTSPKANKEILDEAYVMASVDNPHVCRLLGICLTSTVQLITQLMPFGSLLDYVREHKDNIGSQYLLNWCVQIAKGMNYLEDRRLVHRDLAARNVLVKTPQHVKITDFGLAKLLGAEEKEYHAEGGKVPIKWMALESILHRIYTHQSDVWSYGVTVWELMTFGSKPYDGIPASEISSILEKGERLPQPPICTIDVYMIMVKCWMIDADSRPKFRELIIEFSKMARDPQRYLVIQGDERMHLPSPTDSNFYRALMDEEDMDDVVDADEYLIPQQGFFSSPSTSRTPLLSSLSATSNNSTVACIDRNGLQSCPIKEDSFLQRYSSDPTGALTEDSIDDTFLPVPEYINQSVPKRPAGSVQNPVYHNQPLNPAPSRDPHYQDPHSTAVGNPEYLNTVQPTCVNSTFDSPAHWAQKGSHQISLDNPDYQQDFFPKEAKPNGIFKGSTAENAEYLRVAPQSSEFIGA
Sequence of EGFR L858R/T790M/C797S (P00533 25-1210 T790M/C797S/L858R): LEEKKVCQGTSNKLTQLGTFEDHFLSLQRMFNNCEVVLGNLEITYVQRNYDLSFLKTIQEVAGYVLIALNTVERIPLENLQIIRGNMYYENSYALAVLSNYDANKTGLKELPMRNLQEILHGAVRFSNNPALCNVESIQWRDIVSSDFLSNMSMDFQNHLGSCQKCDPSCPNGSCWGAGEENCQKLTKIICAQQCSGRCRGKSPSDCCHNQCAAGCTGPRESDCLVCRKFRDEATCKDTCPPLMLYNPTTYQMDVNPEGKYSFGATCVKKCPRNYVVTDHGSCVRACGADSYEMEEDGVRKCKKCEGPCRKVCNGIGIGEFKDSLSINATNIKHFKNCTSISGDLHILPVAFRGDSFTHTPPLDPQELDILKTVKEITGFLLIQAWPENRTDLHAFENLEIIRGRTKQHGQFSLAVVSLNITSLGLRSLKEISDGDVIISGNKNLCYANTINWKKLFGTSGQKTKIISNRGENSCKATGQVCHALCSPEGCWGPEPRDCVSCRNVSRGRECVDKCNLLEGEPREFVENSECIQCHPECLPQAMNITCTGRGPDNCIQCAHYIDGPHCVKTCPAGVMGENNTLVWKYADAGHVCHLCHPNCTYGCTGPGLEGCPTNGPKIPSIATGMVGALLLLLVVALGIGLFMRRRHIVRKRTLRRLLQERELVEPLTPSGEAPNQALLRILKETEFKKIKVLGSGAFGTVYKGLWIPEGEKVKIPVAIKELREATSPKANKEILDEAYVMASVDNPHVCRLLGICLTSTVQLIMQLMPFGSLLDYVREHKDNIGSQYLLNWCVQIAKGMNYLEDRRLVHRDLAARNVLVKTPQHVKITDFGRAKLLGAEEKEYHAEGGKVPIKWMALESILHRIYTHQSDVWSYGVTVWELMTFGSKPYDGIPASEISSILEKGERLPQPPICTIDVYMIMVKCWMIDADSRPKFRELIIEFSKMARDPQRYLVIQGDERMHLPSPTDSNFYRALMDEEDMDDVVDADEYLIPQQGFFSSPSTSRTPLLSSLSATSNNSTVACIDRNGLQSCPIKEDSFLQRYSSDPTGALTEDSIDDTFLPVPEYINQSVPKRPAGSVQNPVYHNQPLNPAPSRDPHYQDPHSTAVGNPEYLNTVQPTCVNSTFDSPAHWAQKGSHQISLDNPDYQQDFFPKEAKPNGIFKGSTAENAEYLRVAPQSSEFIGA
Sequence of EGFR L858R/C797S (P00533 25-1210 C797S/L858R): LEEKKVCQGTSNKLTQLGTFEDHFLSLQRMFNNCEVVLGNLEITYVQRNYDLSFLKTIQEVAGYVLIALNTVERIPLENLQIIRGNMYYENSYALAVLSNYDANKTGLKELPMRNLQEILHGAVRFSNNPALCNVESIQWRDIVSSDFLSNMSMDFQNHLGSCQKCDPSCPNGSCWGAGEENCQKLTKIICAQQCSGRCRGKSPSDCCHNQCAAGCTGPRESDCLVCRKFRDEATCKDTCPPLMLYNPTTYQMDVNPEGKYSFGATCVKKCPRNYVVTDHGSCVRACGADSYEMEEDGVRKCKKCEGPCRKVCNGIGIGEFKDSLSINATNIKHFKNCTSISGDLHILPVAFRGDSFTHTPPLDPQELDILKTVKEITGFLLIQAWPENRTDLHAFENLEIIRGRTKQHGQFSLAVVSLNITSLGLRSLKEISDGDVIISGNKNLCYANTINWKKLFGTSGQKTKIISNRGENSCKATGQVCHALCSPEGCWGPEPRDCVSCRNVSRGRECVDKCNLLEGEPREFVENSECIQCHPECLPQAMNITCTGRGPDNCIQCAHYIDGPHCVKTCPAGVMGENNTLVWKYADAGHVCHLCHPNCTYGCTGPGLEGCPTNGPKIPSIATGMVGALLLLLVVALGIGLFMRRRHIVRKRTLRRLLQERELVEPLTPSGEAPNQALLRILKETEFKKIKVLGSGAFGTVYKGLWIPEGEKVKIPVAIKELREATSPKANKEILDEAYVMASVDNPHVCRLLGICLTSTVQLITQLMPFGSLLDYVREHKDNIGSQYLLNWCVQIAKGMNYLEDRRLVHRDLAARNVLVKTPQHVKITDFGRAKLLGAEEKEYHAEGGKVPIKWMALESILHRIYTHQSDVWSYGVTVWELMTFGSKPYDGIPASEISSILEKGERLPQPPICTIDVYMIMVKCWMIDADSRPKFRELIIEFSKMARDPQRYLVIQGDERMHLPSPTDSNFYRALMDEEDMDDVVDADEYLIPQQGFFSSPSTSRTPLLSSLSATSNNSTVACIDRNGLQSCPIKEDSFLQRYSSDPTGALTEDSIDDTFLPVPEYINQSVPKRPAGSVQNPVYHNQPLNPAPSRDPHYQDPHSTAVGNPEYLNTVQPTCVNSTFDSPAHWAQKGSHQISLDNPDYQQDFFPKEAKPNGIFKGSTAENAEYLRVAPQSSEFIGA
Sequence of EGFR wildtype (WT) (P00533 25-1210): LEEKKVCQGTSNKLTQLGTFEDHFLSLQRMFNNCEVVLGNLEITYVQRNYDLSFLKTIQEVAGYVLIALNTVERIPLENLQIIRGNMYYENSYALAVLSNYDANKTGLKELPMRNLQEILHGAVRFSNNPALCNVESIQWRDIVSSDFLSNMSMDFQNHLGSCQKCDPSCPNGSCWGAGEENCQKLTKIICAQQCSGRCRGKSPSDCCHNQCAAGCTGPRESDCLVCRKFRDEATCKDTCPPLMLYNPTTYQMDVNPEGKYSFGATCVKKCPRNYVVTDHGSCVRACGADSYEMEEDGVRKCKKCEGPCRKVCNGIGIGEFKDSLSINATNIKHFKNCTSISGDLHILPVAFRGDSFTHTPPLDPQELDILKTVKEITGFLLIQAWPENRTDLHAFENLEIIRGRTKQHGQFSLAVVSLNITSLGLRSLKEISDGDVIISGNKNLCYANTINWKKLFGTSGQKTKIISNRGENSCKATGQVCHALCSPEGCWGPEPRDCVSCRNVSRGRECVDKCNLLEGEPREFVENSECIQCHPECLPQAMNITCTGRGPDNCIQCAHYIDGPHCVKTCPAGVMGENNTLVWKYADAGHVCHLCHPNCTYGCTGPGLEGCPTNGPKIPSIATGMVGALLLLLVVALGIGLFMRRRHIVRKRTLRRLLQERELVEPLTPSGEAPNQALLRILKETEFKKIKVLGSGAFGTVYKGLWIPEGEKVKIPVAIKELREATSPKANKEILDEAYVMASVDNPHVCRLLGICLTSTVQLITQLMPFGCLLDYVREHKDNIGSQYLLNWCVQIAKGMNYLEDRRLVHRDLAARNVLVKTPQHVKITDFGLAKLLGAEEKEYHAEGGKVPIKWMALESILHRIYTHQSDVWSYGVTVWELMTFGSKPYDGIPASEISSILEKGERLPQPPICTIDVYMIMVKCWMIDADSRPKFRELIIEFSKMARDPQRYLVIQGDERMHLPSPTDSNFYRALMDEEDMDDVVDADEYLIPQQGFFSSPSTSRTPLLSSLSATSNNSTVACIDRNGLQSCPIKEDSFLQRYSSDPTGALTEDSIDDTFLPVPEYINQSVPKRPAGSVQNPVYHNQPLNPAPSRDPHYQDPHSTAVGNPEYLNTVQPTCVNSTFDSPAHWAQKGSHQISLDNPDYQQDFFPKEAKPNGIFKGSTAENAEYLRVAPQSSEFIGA

`O=S(=O)(C1CC1)n1cc(-c2nccc(Nc3cc(N[C@H]4CC[C@](O)(CO)CC4)c(C#Cc4cnn(C(F)F)c4)cn3)n2)cn1` [Example 304, (1s,4s)-4-((2-((2-(1-(Cyclopropylsulfonyl)-1H-pyrazol-4-yl)pyrimidin-4-yl)amino)-5-((1-(difluoromethyl)-1H-pyrazol-4-yl)ethynyl)pyridin-4-yl)amino)-1-(hydroxymethyl)cyclohexan-1-ol]: the IC50 was 64 nM against EGFR Del19/C797S (setting [1]); greater than 10000 nM against EGFR wildtype (WT) (IC50 WT (nM), 100 μM ATP); 103 nM against EGFR L858R/C797S (setting [2]); 5.3 nM against EGFR L858R/T790M/C797S (setting [3]); 2.7 nM against EGFR Del19/T790M/C797S (setting [4]).

As for `CNC1CCN(c2cc(Nc3ccnc(-c4cnn(S(=O)(=O)C5CC5)c4)n3)ncc2C#Cc2cnn(C)c2)CC1` [Example 130, 2-(1-(Cyclopropylsulfonyl)-1H-pyrazol-4-yl)-N-(5-((1-methyl-1H-pyrazol-4-yl)ethynyl)-4-(4-(methylamino)piperidin-1-yl)pyridin-2-yl)pyrimidin-4-amine], the IC50 was 107 nM on EGFR Del19/C797S (setting [1]); greater than 10000 nM against EGFR wildtype (WT) (IC50 WT (nM), 100 μM ATP); 68.7 nM on EGFR L858R/C797S (setting [2]); 5.1 nM against EGFR L858R/T790M/C797S (setting [3]); 1.4 nM against EGFR Del19/T790M/C797S (setting [4]).

In the case of `O=S(=O)(C1CC1)N1CCC(C#Cc2cnc(Nc3ccnc(-c4cnn(S(=O)(=O)C5CC5)c4)n3)cc2NC2CCC(CO)CC2)C1` (centres unmarked) [Example 393, ((1s,4s)-4-((2-((2-(1-(Cyclopropylsulfonyl)-1H-pyrazol-4-yl)pyrimidin-4-yl)amino)-5-((1-(cyclopropylsulfonyl)pyrrolidin-3-yl)ethynyl)pyridin-4-yl)amino)cyclohexyl)methanol], the IC50 at EGFR Del19/C797S (setting [1]) is 7.9 nM; on EGFR Del19/C797S (setting [5]), 7.3 nM; against EGFR wildtype (WT) (IC50 WT (nM), 100 μM ATP) it was greater than 10000 nM; on EGFR wildtype (WT) (setting [6]) it was 21.3 nM; against EGFR L858R/C797S (setting [2]) it was 50 nM; at EGFR L858R/C797S (setting [7]), 3.4 nM. The IC50 on EGFR L858R/T790M/C797S (setting [3]) came out at 1.2 nM; at EGFR L858R/T790M/C797S (setting [8]), 0.4 nM; on EGFR Del19/T790M/C797S (setting [4]), 0.6 nM; at EGFR Del19/T790M/C797S (setting [9]), 0.5 nM.

On to `Cn1cc(C#Cc2cnc(Nc3ccnc(-c4cnn(S(=O)(=O)C5CC5)c4)n3)cc2N2CCC3(CCNC3)CC2)cn1` [Example 156, 2-(1-(Cyclopropylsulfonyl)-1H-pyrazol-4-yl)-N-(5-((1-methyl-1H-pyrazol-4-yl)ethynyl)-4-(2,8-diazaspiro[4.5]decan-8-yl)pyridin-2-yl)pyrimidin-4-amine], for which the IC50 came out at 0.3 nM at EGFR Del19/C797S (setting [10]); 0.4 nM on EGFR Del19/C797S (setting [1]); 2.6 nM on EGFR wildtype (WT) (setting [11]); 2100 nM at EGFR wildtype (WT) (IC50 WT (nM), 100 μM ATP); 1.2 nM on EGFR L858R/C797S (setting [12]); 9 nM at EGFR L858R/C797S (setting [2]). In addition, the IC50 at EGFR L858R/T790M/C797S (setting [13]) turned out to be 0.04 nM; at EGFR L858R/T790M/C797S (setting [3]), 0.1 nM; at EGFR Del19/T790M/C797S (setting [14]), 0.1 nM; against EGFR Del19/T790M/C797S (setting [4]), 0.1 nM.

Turning to `O=S(=O)(C1CC1)n1cc(-c2nccc(Nc3cc(N4CCC[C@H](O)C4)c(C#Cc4ccsc4)cn3)n2)cn1` [Example 228, (S)-1-(2-((2-(1-(Cyclopropylsulfonyl)-1H-pyrazol-4-yl)pyrimidin-4-yl)amino)-5-(thiophen-3-ylethynyl)pyridin-4-yl)piperidin-3-ol], the IC50 was 274 nM against EGFR Del19/C797S (setting [1]); greater than 10000 nM on EGFR wildtype (WT) (IC50 WT (nM), 100 μM ATP); 494 nM at EGFR L858R/C797S (setting [2]); 21.8 nM on EGFR L858R/T790M/C797S (setting [3]); 6.2 nM against EGFR Del19/T790M/C797S (setting [4]).

`Cn1cc(C#Cc2cnc(Nc3ccnc(-c4cnn(S(=O)(=O)C5CC5)c4)n3)cc2N2CCC(F)(CNCCF)CC2)cn1` [Example 383, 2-(1-(Cyclopropylsulfonyl)-1H-pyrazol-4-yl)-N-(4-(4-fluoro-4-(((2-fluoroethyl)amino)methyl)piperidin-1-yl)-5-((1-methyl-1H-pyrazol-4-yl)ethynyl)pyridin-2-yl)pyrimidin-4-amine]: the IC50 was 8.2 nM against EGFR Del19/C797S (setting [1]); 3.7 nM on EGFR Del19/C797S (setting [5]); greater than 10000 nM on EGFR wildtype (WT) (IC50 WT (nM), 100 μM ATP); 40.8 nM on EGFR wildtype (WT) (setting [6]); 86.8 nM at EGFR L858R/C797S (setting [2]); 14.5 nM on EGFR L858R/C797S (setting [7]). Besides, the IC50 at EGFR L858R/T790M/C797S (setting [3]) was 1.2 nM; at EGFR L858R/T790M/C797S (setting [8]) it was 0.6 nM; on EGFR Del19/T790M/C797S (setting [4]) it was 1.2 nM; on EGFR Del19/T790M/C797S (setting [9]), 1 nM.

Turning to `CN(C)CCn1cc(C#Cc2cnc(Nc3ccnc(-c4cnn(S(=O)(=O)C5CC5)c4)n3)cc2N2CCCC(CO)C2)cn1` (centres unmarked) [Example 118, (1-(2-((2-(1-(Cyclopropylsulfonyl)-1H-pyrazol-4-yl)pyrimidin-4-yl)amino)-5-((1-(2-(dimethylamino)ethyl)-1H-pyrazol-4-yl)ethynyl)pyridin-4-yl)piperidin-3-yl)methanol], the IC50 is 0.8 nM on EGFR Del19/C797S (setting [1]); 0.7 nM on EGFR Del19/C797S (Km ATP, read-out: IC50 Del19/C797S (nM) Km ATP); 2690 nM against EGFR wildtype (WT) (IC50 WT (nM), 100 μM ATP); 10.2 nM on EGFR wildtype (WT) (Km ATP, read-out: IC50 WT (nM) Km ATP); 8.5 nM on EGFR L858R/C797S (setting [2]); 0.6 nM at EGFR L858R/C797S (Km ATP, read-out: IC50 L858R/C797S (nM) Km ATP). The IC50 on EGFR L858R/T790M/C797S (setting [3]) turned out to be 0.5 nM; at EGFR L858R/T790M/C797S (Km ATP, read-out: IC50 L858R/T790M/C797S (nM) Km ATP), 0.2 nM; at EGFR Del19/T790M/C797S (setting [4]), 0.6 nM; on EGFR Del19/T790M/C797S (Km ATP, read-out: IC50 Del19/T790M/C797S (nM) Km ATP), 0.5 nM.

Turning to `CN1CCC2(CCN(c3cc(Nc4ccnc(-c5cnn(S(=O)(=O)C6CC6)c5)n4)ncc3C#Cc3cnn(C)c3)CC2)C1` [Example 297, 2-(1-(Cyclopropylsulfonyl)-1H-pyrazol-4-yl)-N-(5-((1-methyl-1H-pyrazol-4-yl)ethynyl)-4-(2-methyl-2,8-diazaspiro[4.5]decan-8-yl)pyridin-2-yl)pyrimidin-4-amine formate], the IC50 at EGFR Del19/C797S (setting [10]) came out at 1.2 nM; against EGFR Del19/C797S (setting [1]) it was 3.2 nM; at EGFR wildtype (WT) (setting [11]), 4.1 nM; against EGFR wildtype (WT) (IC50 WT (nM), 100 μM ATP), 4180 nM; on EGFR L858R/C797S (setting [12]) it was 1 nM; on EGFR L858R/C797S (setting [2]) it was 38.1 nM. Moreover, the IC50 on EGFR L858R/T790M/C797S (setting [13]) is 0.1 nM; on EGFR L858R/T790M/C797S (setting [3]), 0.2 nM; on EGFR Del19/T790M/C797S (setting [14]), 0.1 nM; on EGFR Del19/T790M/C797S (setting [4]) it was 0.1 nM.

As to `CC1(O)CC2(CCN(c3cc(Nc4ccnc(-c5cnn(S(=O)(=O)C6CC6)c5)n4)ncc3C#Cc3cnn(CC(F)(F)F)c3)CC2)C1` [Example 347, 7-(2-((2-(1-(Cyclopropylsulfonyl)-1H-pyrazol-4-yl)pyrimidin-4-yl)amino)-5-((1-(2,2,2-trifluoroethyl)-1H-pyrazol-4-yl)ethynyl)pyridin-4-yl)-2-methyl-7-azaspiro[3.5]nonan-2-ol], the IC50 was 8.4 nM on EGFR Del19/C797S (setting [1]); 9.2 nM on EGFR Del19/C797S (setting [5]); 7140 nM on EGFR wildtype (WT) (IC50 WT (nM), 100 μM ATP); 74.3 nM at EGFR wildtype (WT) (setting [6]); 11.7 nM at EGFR L858R/C797S (setting [2]); 5.9 nM on EGFR L858R/C797S (setting [7]). Further, the IC50 against EGFR L858R/T790M/C797S (setting [3]) is 1.7 nM; on EGFR L858R/T790M/C797S (setting [8]), 3.2 nM; against EGFR Del19/T790M/C797S (setting [4]), 6 nM; on EGFR Del19/T790M/C797S (setting [9]), 5.4 nM.

Consider `Cn1cc(C#Cc2cnc(Nc3ccnc(-c4cnn(S(=O)(=O)C5CC5)c4)n3)cc2N2CCC(C(C)(C)CO)CC2)cn1` [Example 14, 2-(1-(2-((2-(1-(Cyclopropylsulfonyl)-1H-pyrazol-4-yl)pyrimidin-4-yl)amino)-5-((1-methyl-1H-pyrazol-4-yl)ethynyl)pyridin-4-yl)piperidin-4-yl)-2-methylpropan-1-ol], for which the IC50 is 21.7 nM against EGFR Del19/C797S (setting [1]); greater than 10000 nM against EGFR wildtype (WT) (IC50 WT (nM), 100 μM ATP); 41 nM at EGFR L858R/C797S (setting [2]); 3 nM on EGFR L858R/T790M/C797S (setting [3]); 3.9 nM on EGFR Del19/T790M/C797S (setting [4]).
